Numbers after ± are expanded uncertainties.
How the values were obtained:
[1] = molar heat capacity at constant pressure; xn = mol fraction of the nth substance listed; settings: 101 kPa, Liquid, DSC
[2] = xn = mol fraction of the nth substance listed; settings: 101 kPa, Liquid; for viscosity: Falling or rolling sphere viscometry; for speed of sound: Sing-around technique in a fixed-path interferometer; for mass density: Vibrating tube method

CC12CCC(CC1)C(C)(C)O2 [1,3,3-trimethyl-2-oxabicyclo[2.2.2]octane] + CCCCCCCCCC
Settings | mass density, [2] [kg/m3] | molar heat capacity at constant pressure, [1] [J/K/mol] | speed of sound, [2] [m/s] | viscosity, [2] [mPa·s]
278.15 K, x1 = 0.1066 | 758.86 ± 0.24 | 299.16 ± 12 | 1315.5 ± 1.5 | 1.29 ± 0.04
278.15 K, x1 = 0.2007 | 775.04 ± 0.24 | 293.5 ± 11 | 1316.6 ± 1.5 | 1.39 ± 0.04
278.15 K, x1 = 0.2965 | 792.05 ± 0.24 | 287.99 ± 11 | 1318.2 ± 1.5 | 1.5 ± 0.04
278.15 K, x1 = 0.4063 | 812.26 ± 0.24 | 282.04 ± 11 | 1321.2 ± 1.5 | 1.66 ± 0.04
278.15 K, x1 = 0.5005 | 830.26 ± 0.24 | 277.25 ± 11 | 1324.7 ± 1.5 | 1.82 ± 0.04
278.15 K, x1 = 0.5959 | 849.15 ± 0.24 | 272.59 ± 11 | 1329 ± 1.5 | 2.05 ± 0.04
278.15 K, x1 = 0.7007 | 870.67 ± 0.24 | 267.96 ± 10 | 1335 ± 1.5 | 2.39 ± 0.05
278.15 K, x1 = 0.7989 | 891.66 ± 0.23 | 263.81 ± 10 | 1341.8 ± 1.5 | 2.86 ± 0.05
278.15 K, x1 = 0.8956 | 913.12 ± 0.23 | 259.87 ± 10 | 1349.5 ± 1.6 | 3.41 ± 0.05
278.15 K, x1 = 1 | 937.25 ± 0.23 | 256.14 ± 9.9 | 1359.6 ± 1.6 | 4.21 ± 0.05
298.15 K, x1 = 0.1066 | 743.66 ± 0.24 | 308.32 ± 12 | 1235.6 ± 1.5 | 0.93 ± 0.04
298.15 K, x1 = 0.2007 | 759.71 ± 0.24 | 303.12 ± 12 | 1237 ± 1.5 | 1 ± 0.04
298.15 K, x1 = 0.2965 | 776.57 ± 0.24 | 298.17 ± 12 | 1239.1 ± 1.5 | 1.07 ± 0.04
298.15 K, x1 = 0.4063 | 796.58 ± 0.24 | 292.62 ± 11 | 1242.3 ± 1.5 | 1.16 ± 0.04
298.15 K, x1 = 0.5005 | 814.39 ± 0.24 | 288.12 ± 11 | 1245.7 ± 1.5 | 1.26 ± 0.04
298.15 K, x1 = 0.5959 | 833.07 ± 0.24 | 283.78 ± 11 | 1250 ± 1.5 | 1.41 ± 0.04
298.15 K, x1 = 0.7007 | 854.34 ± 0.24 | 279.2 ± 11 | 1255.6 ± 1.5 | 1.61 ± 0.04
298.15 K, x1 = 0.7989 | 875.07 ± 0.24 | 275.24 ± 11 | 1261.9 ± 1.5 | 1.86 ± 0.04
298.15 K, x1 = 0.8956 | 896.24 ± 0.23 | 271.44 ± 11 | 1269.3 ± 1.5 | 2.16 ± 0.04
298.15 K, x1 = 1 | 920.04 ± 0.23 | 267.69 ± 10 | 1278.4 ± 1.5 | 2.6 ± 0.05
318.15 K, x1 = 0.1066 | 728.29 ± 0.24 | 318.26 ± 12 | 1157.5 ± 1.5 | 0.71 ± 0.04
318.15 K, x1 = 0.2007 | 744.21 ± 0.24 | 313.35 ± 12 | 1159.5 ± 1.5 | 0.75 ± 0.04
318.15 K, x1 = 0.2965 | 760.92 ± 0.24 | 308.63 ± 12 | 1162 ± 1.5 | 0.81 ± 0.04
318.15 K, x1 = 0.4063 | 780.75 ± 0.24 | 303.32 ± 12 | 1165.5 ± 1.5 | 0.87 ± 0.04
318.15 K, x1 = 0.5005 | 798.4 ± 0.24 | 298.96 ± 12 | 1169.1 ± 1.5 | 0.93 ± 0.04
318.15 K, x1 = 0.5959 | 816.88 ± 0.24 | 294.7 ± 11 | 1173.4 ± 1.5 | 1.02 ± 0.04
318.15 K, x1 = 0.7007 | 837.92 ± 0.24 | 290.19 ± 11 | 1179 ± 1.5 | 1.14 ± 0.04
318.15 K, x1 = 0.7989 | 858.42 ± 0.24 | 286.17 ± 11 | 1184.9 ± 1.5 | 1.29 ± 0.04
318.15 K, x1 = 0.8956 | 879.33 ± 0.24 | 282.47 ± 11 | 1192.3 ± 1.5 | 1.48 ± 0.04
318.15 K, x1 = 1 | 902.84 ± 0.23 | 278.65 ± 11 | 1201 ± 1.5 | 1.73 ± 0.04
338.15 K, x1 = 0.1066 | 712.7 ± 0.25 | 328.92 ± 13 | 1081.8 ± 1.5 | 0.58 ± 0.04
338.15 K, x1 = 0.2007 | 728.49 ± 0.24 | 324.19 ± 13 | 1083.9 ± 1.5 | 0.6 ± 0.04
338.15 K, x1 = 0.2965 | 745.06 ± 0.24 | 319.65 ± 12 | 1087.1 ± 1.5 | 0.64 ± 0.04
338.15 K, x1 = 0.4063 | 764.73 ± 0.24 | 314.6 ± 12 | 1091.2 ± 1.5 | 0.69 ± 0.04
338.15 K, x1 = 0.5005 | 782.2 ± 0.24 | 310.38 ± 12 | 1094.9 ± 1.5 | 0.73 ± 0.04
338.15 K, x1 = 0.5959 | 800.51 ± 0.24 | 306.21 ± 12 | 1099.3 ± 1.5 | 0.79 ± 0.04
338.15 K, x1 = 0.7007 | 821.36 ± 0.24 | 301.78 ± 12 | 1105.3 ± 1.5 | 0.88 ± 0.04
338.15 K, x1 = 0.7989 | 841.62 ± 0.24 | 297.82 ± 12 | 1111.3 ± 1.5 | 0.98 ± 0.04
338.15 K, x1 = 0.8956 | 862.32 ± 0.24 | 294.23 ± 11 | 1118.5 ± 1.5 | 1.1 ± 0.04
338.15 K, x1 = 1 | 885.57 ± 0.23 | 290.33 ± 11 | 1126.7 ± 1.5 | 1.27 ± 0.04

Source: the NIST ThermoML archive (doi:10.1016/j.fluid.2016.08.035)
